According to PMC11922054 (Science Advances, 2025):
Ends that are not written are not given here.

How the values were obtained:
[1] = tested on: S. cohnii L5; assay: MIC, broth microdilution; type: cell-based, Staphylococcus cohnii; details: for MICs of derivatives: strain not named in the sentence (table S6: S. cohnii L5 and E. coli)
[2] = tested on: H9c2 cells; assay: Cytotoxicity, WST-1 assay; type: cell-based, rat; details: up to 512 μM, 24 hours
[3] = tested on: sheep red blood cells (RBCs); assay: Hemolytic activity; type: cell-based; details: 0 to 512 μM, 37°C, 1 hour
[4] = tested on: S. cohnii L5; assay: Mouse skin wound infection model; type: in vivo; details: 10 days; NCBP1 8 mg/kg
[5] = tested on: HEp-2 cells; assay: Cytotoxicity, WST-1 assay; type: cell-based, human; details: up to 512 μM, 24 hours
[6] = pH stability; type: physicochemical; details: pH 2 to 12 for 1 and 2 hours, 37°C; read-out activity on S. cohnii L5
[7] = tested on: Vero cells; assay: Cytotoxicity, WST-1 assay; type: cell-based, African green monkey; details: up to 512 μM, 24 hours
[8] = tested on: BALB/c mice; assay: In vivo toxicity experiments; design: species or system mouse; details: after 5 days; intraperitoneal, highest dose 150 mg/kg; n = 5
[9] = tested on: A549 cells; assay: Cytotoxicity, WST-1 assay; type: cell-based; details: up to 512 μM, 24 hours

APWLRVALCPG [NCBP1a]
MICs of derivatives [1]: > 512 µM

KPWLAVALCPG [NCBP1b]
MICs of derivatives [1]: > 512 µM

KPWLRVALCPG [NCBP1]
toxicity toward cells [2]: negligible toxicity
MIC ([1]; S. cohnii L5, broth microdilution, 18 h, 37°C): 16 µM
hemolytic activity [3]: no noticeable hemolytic activity
growth of the mice, body weight [4]: did not affect the normal growth
toxicity toward cells [5]: negligible toxicity
pH stability [6]: resistant to a wide range of pH values
toxicity toward cells [7]: negligible toxicity
survival rate of mice [8]: 100%
toxicity toward cells [9]: negligible toxicity
